Reference: publication PMC9681820, “A PDE10A inhibitor CPL500036 is a novel agent modulating striatal function devoid of most neuroleptic side-effects” (Frontiers in Pharmacology, 2022)

Columns and labels:
[1] = system: α-dendrotoxin sensitive potassium channel; assay: SafetyScreen44 radioligand binding; design: species or system rat; conditions: 1 μM
Protocol: (§1) The SafetyScreen44® assay was carried out by Eurofins (Poitiers, France) according to the service-provider’s protocol. CPL500036 (1 µM) was tested against a panel of […] potential off-targets proteins, including G protein-coupled receptors (GPCRs), transporters, ion channels, nuclear receptors kinases and other non-kinase enzymes, by use of a set of the binding assays.
(§2) Binding of CPL500036 was calculated as the percent binding inhibition of a radioactively labeled ligand specific for each target. Enzyme inhibition of CPL500036 was calculated as the percent inhibition of the activity of the control enzyme. “No interaction” was denoted if inhibition ≤ 25% of specific binding of the control. Determination of muscarinic acetylcholine receptor (M2) activity induced by CPL500036 (antagonism and agonism) was undertaken in human recombinant CHO cells by measurement of the intracellular cAMP level according to the service-provider’s protocol. IC50 (concentration causing a half-maximal inhibition of specific binding of the control) or EC50 (concentration causing a half-maximal response of specific binding of the control) and the Hill coefficient were determined by non-linear regression analysis of the competition curves generated with mean replicate values using Hill-equation curve fitting with software developed at Cerep (Celle-Lévescault, France).

[2] = molecular target: T1, muscarinic acetylcholine receptor type 2 (Homo sapiens, UniProt P08172); assay: SafetyScreen44 radioligand binding (antagonistic radioligand assay); conditions: read-out: % Inh (% inhibition of control specific binding)
T1 construct: purchased Eurofins Cerep (SafetyScreen44)
Protocol: as §1, §2

vasopressin receptor = molecular target: T2, vasopressin receptor (Homo sapiens, UniProt P37288); assay: SafetyScreen44 radioligand binding; conditions: agonist radioligand, read-out: % Inh (% inhibition of control specific binding)
T2 construct: purchased Eurofins Cerep (SafetyScreen44)
Protocol: as §1, §2

Endothelin receptor = molecular target: T3, Endothelin receptor (Homo sapiens, UniProt P25101); assay: SafetyScreen44 radioligand binding; conditions: agonist radioligand, read-out: % Inh (% inhibition of control specific binding)
T3 construct: purchased Eurofins Cerep (SafetyScreen44)
Protocol: as §1, §2

serotonin receptor 2B = molecular target: T4, serotonin receptor 2B (Homo sapiens, UniProt P41595); assay: SafetyScreen44 radioligand binding; conditions: agonist radioligand, read-out: % Inh (% inhibition of control specific binding)
T4 construct: purchased Eurofins Cerep (SafetyScreen44)
Protocol: as §1, §2

κ-type opioid receptor = molecular target: T5, κ-type opioid receptor (Rattus norvegicus, UniProt P34975); assay: SafetyScreen44 radioligand binding; conditions: agonist radioligand, read-out: % Inh (% inhibition of control specific binding)
T5 construct: purchased Eurofins Cerep (SafetyScreen44)
Protocol: as §1, §2

[3] = molecular target: T6, alpha-1A adrenergic receptor (Homo sapiens, UniProt P35348); assay: SafetyScreen44 radioligand binding; conditions: read-out: % Inh (% inhibition of control specific binding)
T6 construct: purchased Eurofins Cerep (SafetyScreen44)
Protocol: as §1, §2

[4] = molecular target: T7, beta-2 adrenergic receptor (Homo sapiens, UniProt P07550); assay: SafetyScreen44 radioligand binding; conditions: agonist radioligand, read-out: % Inh (% inhibition of control specific binding)
T7 construct: purchased Eurofins Cerep (SafetyScreen44)
Protocol: as §1, §2

androgen receptor = molecular target: T8, androgen receptor (Homo sapiens, UniProt P10275, T878A); assay: SafetyScreen44 radioligand binding; conditions: agonist radioligand, read-out: % Inh (% inhibition of control specific binding)
T8 construct: purchased Eurofins Cerep (SafetyScreen44)
Protocol: as §1, §2

[5] = molecular target: T9, cannabinoid receptor type 2 (Homo sapiens, UniProt P34972); assay: SafetyScreen44 radioligand binding; conditions: agonist radioligand, read-out: % Inh (% inhibition of control specific binding)
T9 construct: purchased Eurofins Cerep (SafetyScreen44)
Protocol: as §1, §2

[6] = molecular target: T10, histamine receptor type 2 (Homo sapiens, UniProt P25021); assay: SafetyScreen44 radioligand binding; conditions: read-out: % Inh (% inhibition of control specific binding)
T10 construct: purchased Eurofins Cerep (SafetyScreen44)
Protocol: as §1, §2

dopamine receptor type 1 = molecular target: T11, dopamine receptor type 1 (Homo sapiens, UniProt P21728); assay: SafetyScreen44 radioligand binding; conditions: read-out: % Inh (% inhibition of control specific binding)
T11 construct: purchased Eurofins Cerep (SafetyScreen44)
Protocol: as §1, §2

Monoamine oxidase A = molecular target: T12, Monoamine oxidase A (Rattus norvegicus, UniProt P21396); assay: SafetyScreen44 radioligand binding; conditions: read-out: % Inh (% inhibition of control specific binding)
T12 construct: purchased Eurofins Cerep (SafetyScreen44)
Protocol: as §1, §2

[7] = molecular target: T13, cannabinoid receptor type 1 (Homo sapiens, UniProt P21554); assay: SafetyScreen44 radioligand binding; conditions: agonist radioligand, read-out: % Inh (% inhibition of control specific binding)
T13 construct: purchased Eurofins Cerep (SafetyScreen44)
Protocol: as §1, §2

[8] = molecular target: T14, norepinephrine transporter (Homo sapiens, UniProt P23975); assay: SafetyScreen44 radioligand binding; conditions: read-out: % Inh (% inhibition of control specific binding)
T14 construct: purchased Eurofins Cerep (SafetyScreen44)
T14 sequence (P23975 whole entry): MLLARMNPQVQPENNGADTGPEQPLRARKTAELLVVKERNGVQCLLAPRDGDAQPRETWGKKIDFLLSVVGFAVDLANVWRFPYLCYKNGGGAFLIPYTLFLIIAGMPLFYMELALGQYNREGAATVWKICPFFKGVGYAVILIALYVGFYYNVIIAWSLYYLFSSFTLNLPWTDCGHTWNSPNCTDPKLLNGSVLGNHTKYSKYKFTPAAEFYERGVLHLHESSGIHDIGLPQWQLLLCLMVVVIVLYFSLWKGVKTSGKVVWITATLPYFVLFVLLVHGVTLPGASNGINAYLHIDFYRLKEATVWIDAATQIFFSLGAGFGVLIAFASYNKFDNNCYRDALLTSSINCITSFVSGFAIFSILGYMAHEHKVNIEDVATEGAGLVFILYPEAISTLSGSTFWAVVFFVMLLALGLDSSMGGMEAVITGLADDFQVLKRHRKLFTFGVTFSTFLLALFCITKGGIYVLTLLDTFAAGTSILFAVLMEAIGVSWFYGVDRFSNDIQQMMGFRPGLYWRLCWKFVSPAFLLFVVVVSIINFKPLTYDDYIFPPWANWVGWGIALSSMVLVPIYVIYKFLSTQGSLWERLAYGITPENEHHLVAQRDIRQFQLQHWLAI
Protocol: as §1, §2

[9] = molecular target: T15, alpha-2A adrenergic receptor (Homo sapiens, UniProt P08913); assay: SafetyScreen44 radioligand binding; conditions: read-out: % Inh (% inhibition of control specific binding)
T15 construct: purchased Eurofins Cerep (SafetyScreen44)
Protocol: as §1, §2

5-HT transporter = molecular target: T16, 5-HT transporter (Homo sapiens, UniProt P31645); assay: SafetyScreen44 radioligand binding; conditions: read-out: % Inh (% inhibition of control specific binding)
T16 construct: purchased Eurofins Cerep (SafetyScreen44)
Protocol: as §1, §2

serotonin receptor 1B = molecular target: T17, serotonin receptor 1B (Rattus norvegicus, UniProt P28564); assay: SafetyScreen44 radioligand binding; conditions: read-out: % Inh (% inhibition of control specific binding)
T17 construct: purchased Eurofins Cerep (SafetyScreen44)
Protocol: as §1, §2

glucocorticoid receptor = molecular target: T18, glucocorticoid receptor (Homo sapiens, UniProt P04150); assay: SafetyScreen44 radioligand binding; conditions: agonist radioligand, read-out: % Inh (% inhibition of control specific binding)
T18 construct: purchased Eurofins Cerep (SafetyScreen44)
Protocol: as §1, §2

dopamine transporter = molecular target: T19, dopamine transporter (Homo sapiens, UniProt Q01959); assay: SafetyScreen44 radioligand binding; conditions: read-out: % Inh (% inhibition of control specific binding)
T19 construct: purchased Eurofins Cerep (SafetyScreen44)
T19 sequence (Q01959 whole entry): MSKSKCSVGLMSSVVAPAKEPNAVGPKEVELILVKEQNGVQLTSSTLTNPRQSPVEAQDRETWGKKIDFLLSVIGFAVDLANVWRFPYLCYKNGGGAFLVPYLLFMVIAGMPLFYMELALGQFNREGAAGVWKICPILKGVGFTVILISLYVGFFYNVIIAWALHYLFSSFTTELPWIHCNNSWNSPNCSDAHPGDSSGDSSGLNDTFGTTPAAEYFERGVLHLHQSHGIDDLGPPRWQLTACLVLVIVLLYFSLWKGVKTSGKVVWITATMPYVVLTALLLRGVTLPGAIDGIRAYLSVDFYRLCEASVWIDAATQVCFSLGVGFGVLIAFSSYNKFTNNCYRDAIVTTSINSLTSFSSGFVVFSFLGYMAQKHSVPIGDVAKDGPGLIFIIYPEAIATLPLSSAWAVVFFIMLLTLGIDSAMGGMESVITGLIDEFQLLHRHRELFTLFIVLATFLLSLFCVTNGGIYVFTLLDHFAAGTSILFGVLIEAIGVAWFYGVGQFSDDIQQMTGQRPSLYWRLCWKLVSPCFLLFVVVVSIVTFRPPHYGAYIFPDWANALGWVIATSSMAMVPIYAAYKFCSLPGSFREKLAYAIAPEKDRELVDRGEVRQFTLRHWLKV
Protocol: as §1, §2

[10] = molecular target: T20, potassium voltage-gated channel subfamily H member 2 (hERG) (Homo sapiens, UniProt Q12809); assay: SafetyScreen44 radioligand binding; conditions: read-out: % Inh (% inhibition of control specific binding)
T20 construct: purchased Eurofins Cerep (SafetyScreen44)
Protocol: as §1, §2

[11] = molecular target: T21, beta-1 adrenergic receptor (Homo sapiens, UniProt P08588); assay: SafetyScreen44 radioligand binding; conditions: agonist radioligand, read-out: % Inh (% inhibition of control specific binding)
T21 construct: purchased Eurofins Cerep (SafetyScreen44)
T21 sequence (P08588 whole entry): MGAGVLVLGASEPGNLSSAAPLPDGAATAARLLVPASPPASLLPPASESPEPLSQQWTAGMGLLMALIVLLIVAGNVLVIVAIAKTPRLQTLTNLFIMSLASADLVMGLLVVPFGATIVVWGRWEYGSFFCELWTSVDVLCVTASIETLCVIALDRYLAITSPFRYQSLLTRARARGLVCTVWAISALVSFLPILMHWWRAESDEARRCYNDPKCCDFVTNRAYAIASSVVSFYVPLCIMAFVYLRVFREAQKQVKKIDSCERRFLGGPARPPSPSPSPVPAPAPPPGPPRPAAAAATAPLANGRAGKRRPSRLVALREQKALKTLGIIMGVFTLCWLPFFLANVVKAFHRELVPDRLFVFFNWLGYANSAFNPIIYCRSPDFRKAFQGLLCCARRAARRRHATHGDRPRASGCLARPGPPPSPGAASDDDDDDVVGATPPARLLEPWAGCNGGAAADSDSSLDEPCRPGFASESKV
Protocol: as §1, §2

[12] = molecular target: T22, histamine receptor type 1 (Homo sapiens, UniProt P35367); assay: SafetyScreen44 radioligand binding; conditions: read-out: % Inh (% inhibition of control specific binding)
T22 construct: purchased Eurofins Cerep (SafetyScreen44)
Protocol: as §1, §2

[13] = molecular target: T23, muscarinic acetylcholine receptor type 1 (Homo sapiens, UniProt P11229); assay: SafetyScreen44 radioligand binding; conditions: read-out: % Inh (% inhibition of control specific binding)
T23 construct: purchased Eurofins Cerep (SafetyScreen44)
Protocol: as §1, §2

serotonin receptor 3 = molecular target: T24, serotonin receptor 3 (Homo sapiens, UniProt P46098); assay: SafetyScreen44 radioligand binding; conditions: read-out: % Inh (% inhibition of control specific binding)
T24 construct: purchased Eurofins Cerep (SafetyScreen44)
Protocol: as §1, §2

[14] = molecular target: T25, cholecystokinin A receptor (Homo sapiens, UniProt P32238); assay: SafetyScreen44 radioligand binding; conditions: agonist radioligand, read-out: % Inh (% inhibition of control specific binding)
T25 construct: purchased Eurofins Cerep (SafetyScreen44)
T25 sequence (P32238 whole entry): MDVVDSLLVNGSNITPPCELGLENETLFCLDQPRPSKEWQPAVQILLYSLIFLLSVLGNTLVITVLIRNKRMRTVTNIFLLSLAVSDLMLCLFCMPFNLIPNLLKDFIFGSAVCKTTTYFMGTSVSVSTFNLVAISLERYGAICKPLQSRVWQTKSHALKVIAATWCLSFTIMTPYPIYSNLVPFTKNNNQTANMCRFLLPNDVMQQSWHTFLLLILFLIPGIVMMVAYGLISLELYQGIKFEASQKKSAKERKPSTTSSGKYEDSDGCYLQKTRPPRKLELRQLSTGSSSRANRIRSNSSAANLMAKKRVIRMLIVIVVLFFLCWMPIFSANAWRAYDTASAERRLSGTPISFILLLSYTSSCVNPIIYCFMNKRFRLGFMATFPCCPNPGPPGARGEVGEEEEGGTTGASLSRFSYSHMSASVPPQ
Protocol: as §1, §2

µ -type opioid receptor = molecular target: T26, µ -type opioid receptor (Homo sapiens, UniProt P35372); assay: SafetyScreen44 radioligand binding; conditions: agonist radioligand, read-out: % Inh (% inhibition of control specific binding)
T26 construct: purchased Eurofins Cerep (SafetyScreen44)
Protocol: as §1, §2

adenosine A2A receptor = molecular target: T27, adenosine A2A receptor (Homo sapiens, UniProt P29274); assay: SafetyScreen44 radioligand binding; conditions: agonist radioligand, read-out: % Inh (% inhibition of control specific binding)
T27 construct: purchased Eurofins Cerep (SafetyScreen44)
Protocol: as §1, §2

[15] = molecular target: T28, alpha 4/beta 2 nicotinic acetylcholine receptor, (neuronal) (Homo sapiens, UniProt P17787+P43681); assay: SafetyScreen44 radioligand binding; conditions: agonist radioligand, read-out: % Inh (% inhibition of control specific binding)
T28 construct: purchased Eurofins Cerep (SafetyScreen44)
T28 sequence (P43681 29-627 limits assumed): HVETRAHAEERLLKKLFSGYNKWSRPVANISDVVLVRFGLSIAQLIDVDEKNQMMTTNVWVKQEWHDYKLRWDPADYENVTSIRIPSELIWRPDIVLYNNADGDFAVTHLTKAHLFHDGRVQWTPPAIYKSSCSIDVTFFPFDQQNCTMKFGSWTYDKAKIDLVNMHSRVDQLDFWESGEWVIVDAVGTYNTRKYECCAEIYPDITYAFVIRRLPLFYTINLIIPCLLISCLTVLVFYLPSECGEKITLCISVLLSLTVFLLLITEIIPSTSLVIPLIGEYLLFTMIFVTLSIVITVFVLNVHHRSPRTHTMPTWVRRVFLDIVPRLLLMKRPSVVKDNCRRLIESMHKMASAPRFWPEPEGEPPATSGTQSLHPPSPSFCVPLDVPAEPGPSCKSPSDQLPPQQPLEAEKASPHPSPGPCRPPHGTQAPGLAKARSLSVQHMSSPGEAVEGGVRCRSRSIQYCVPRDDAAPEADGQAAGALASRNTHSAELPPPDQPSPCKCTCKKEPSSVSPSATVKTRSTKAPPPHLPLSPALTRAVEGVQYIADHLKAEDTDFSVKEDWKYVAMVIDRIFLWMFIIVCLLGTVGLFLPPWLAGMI
T28 sequence (P17787 26-502): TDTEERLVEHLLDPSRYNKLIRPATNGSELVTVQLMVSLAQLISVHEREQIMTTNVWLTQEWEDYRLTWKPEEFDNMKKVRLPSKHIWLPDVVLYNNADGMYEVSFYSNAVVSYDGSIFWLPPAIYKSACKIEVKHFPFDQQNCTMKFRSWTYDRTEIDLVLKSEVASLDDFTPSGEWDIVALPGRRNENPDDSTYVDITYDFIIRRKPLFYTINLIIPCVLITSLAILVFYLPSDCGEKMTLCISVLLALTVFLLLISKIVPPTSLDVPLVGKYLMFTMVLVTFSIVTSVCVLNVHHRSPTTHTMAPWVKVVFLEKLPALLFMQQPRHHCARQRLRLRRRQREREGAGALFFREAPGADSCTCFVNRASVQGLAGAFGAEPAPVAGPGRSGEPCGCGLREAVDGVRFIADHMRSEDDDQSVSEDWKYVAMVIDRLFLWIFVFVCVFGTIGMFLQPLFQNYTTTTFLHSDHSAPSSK
Protocol: as §1, §2

serotonin receptor 2A = molecular target: T29, serotonin receptor 2A (Homo sapiens, UniProt P28223); assay: SafetyScreen44 radioligand binding; conditions: agonist radioligand, read-out: % Inh (% inhibition of control specific binding)
T29 construct: purchased Eurofins Cerep (SafetyScreen44)
T29 sequence (P28223 whole entry): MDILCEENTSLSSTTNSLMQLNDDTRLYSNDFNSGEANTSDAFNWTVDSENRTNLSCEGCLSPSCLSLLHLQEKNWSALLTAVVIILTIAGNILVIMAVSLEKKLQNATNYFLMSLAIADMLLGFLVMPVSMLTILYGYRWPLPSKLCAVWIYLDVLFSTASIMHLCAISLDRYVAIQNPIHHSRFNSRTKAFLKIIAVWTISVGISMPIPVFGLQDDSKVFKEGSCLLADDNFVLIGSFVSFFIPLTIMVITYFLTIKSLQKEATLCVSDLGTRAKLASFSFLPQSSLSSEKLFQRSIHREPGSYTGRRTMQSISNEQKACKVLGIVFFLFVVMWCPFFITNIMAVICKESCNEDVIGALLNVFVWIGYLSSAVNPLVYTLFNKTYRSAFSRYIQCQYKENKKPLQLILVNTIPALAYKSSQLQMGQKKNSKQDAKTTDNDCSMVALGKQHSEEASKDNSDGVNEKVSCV
Protocol: as §1, §2

serotonin receptor 1A = molecular target: T30, serotonin receptor 1A (Homo sapiens, UniProt P08908); assay: SafetyScreen44 radioligand binding; conditions: agonist radioligand, read-out: % Inh (% inhibition of control specific binding)
T30 construct: purchased Eurofins Cerep (SafetyScreen44)
Protocol: as §1, §2

[16] = molecular target: T31, δ-type opioid receptor ẟ2 (Homo sapiens, UniProt P41143); assay: SafetyScreen44 radioligand binding; conditions: agonist radioligand, read-out: % Inh (% inhibition of control specific binding)
T31 construct: purchased Eurofins Cerep (SafetyScreen44)
Protocol: as §1, §2

dopamine receptor type 2 = molecular target: T32, dopamine receptor type 2 (Homo sapiens, UniProt P14416); assay: SafetyScreen44 radioligand binding; conditions: agonist radioligand, read-out: % Inh (% inhibition of control specific binding)
T32 construct: purchased Eurofins Cerep (SafetyScreen44)
T32 sequence (P14416 whole entry): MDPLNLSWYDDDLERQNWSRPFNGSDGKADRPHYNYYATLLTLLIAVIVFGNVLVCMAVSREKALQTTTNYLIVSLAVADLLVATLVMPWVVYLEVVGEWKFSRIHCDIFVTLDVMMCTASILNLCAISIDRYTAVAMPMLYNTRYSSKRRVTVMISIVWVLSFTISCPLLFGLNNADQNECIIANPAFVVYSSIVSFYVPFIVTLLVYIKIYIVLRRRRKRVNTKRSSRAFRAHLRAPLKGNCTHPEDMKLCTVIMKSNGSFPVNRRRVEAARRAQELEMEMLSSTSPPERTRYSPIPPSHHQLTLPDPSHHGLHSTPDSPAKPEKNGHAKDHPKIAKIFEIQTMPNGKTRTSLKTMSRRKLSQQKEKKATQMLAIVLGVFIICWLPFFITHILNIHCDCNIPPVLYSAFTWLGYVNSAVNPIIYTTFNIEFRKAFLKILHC
Protocol: as §1, §2

[17] = molecular target: T33, muscarinic acetylcholine receptor type 3 (Homo sapiens, UniProt P20309); assay: SafetyScreen44 radioligand binding; conditions: read-out: % Inh (% inhibition of control specific binding)
T33 construct: purchased Eurofins Cerep (SafetyScreen44)
T33 sequence (P20309 whole entry): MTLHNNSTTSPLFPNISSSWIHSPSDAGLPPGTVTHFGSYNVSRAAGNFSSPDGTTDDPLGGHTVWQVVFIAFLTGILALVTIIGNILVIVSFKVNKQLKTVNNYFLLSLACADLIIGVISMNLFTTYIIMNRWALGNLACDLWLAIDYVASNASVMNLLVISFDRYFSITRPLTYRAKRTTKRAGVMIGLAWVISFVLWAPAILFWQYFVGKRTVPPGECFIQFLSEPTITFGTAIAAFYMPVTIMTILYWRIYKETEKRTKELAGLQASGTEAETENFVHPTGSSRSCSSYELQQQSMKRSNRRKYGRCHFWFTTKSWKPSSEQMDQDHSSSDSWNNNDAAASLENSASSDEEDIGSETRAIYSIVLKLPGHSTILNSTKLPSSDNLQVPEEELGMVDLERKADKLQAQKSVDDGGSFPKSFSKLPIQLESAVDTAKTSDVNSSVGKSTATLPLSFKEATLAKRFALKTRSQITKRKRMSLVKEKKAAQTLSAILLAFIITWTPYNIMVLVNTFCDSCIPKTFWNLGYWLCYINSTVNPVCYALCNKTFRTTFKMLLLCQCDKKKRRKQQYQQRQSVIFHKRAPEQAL
Protocol: as §1, §2

Cc1ncc(C)n2nc(-c3ccn4cc(-c5ccccc5)nc4n3)nc12 [CPL500036, 7-[5,8-Dimethyl-(1,2,4)triazolo (1,5-a)pyrazin-2-yl]-2-phenylimidazo (1,2-a) pyrimidine]
% Inh (% inhibition of control specific binding) [1]: −10.2% | inhibition at 1 µM [2]: -91.2% | inhibition at 1 µM (vasopressin receptor): -0.8% | inhibition at 1 µM (Endothelin receptor): -16.8% | inhibition at 1 µM (serotonin receptor 2B): 10.6% | inhibition at 1 µM (κ-type opioid receptor): 7.7% | inhibition at 1 µM [3]: 1.8% | inhibition at 1 µM [4]: 8.2% | inhibition at 1 µM (androgen receptor): 5.3% | inhibition at 1 µM [5]: -14.6% | inhibition at 1 µM [6]: 1.8% | inhibition at 1 µM (dopamine receptor type 1): -8.2% | inhibition at 1 µM (Monoamine oxidase A): 1% | inhibition at 1 µM [7]: 8.8% | inhibition at 1 µM [8]: -14.5% | inhibition at 1 µM [9]: 0.4% | inhibition at 1 µM (5-HT transporter): -9.5% | inhibition at 1 µM (serotonin receptor 1B): -7.3% | inhibition at 1 µM (glucocorticoid receptor): -3.2% | inhibition at 1 µM (dopamine transporter): -6.9% | inhibition at 1 µM [10]: -19.6% | inhibition at 1 µM [11]: 1.1% | inhibition at 1 µM [12]: -14.6% | inhibition at 1 µM [13]: -19.7% | inhibition at 1 µM (serotonin receptor 3): -5.7% | inhibition at 1 µM [14]: -8.2% | inhibition at 1 µM (µ -type opioid receptor): -1.1% | inhibition at 1 µM (adenosine A2A receptor): -8.1% | inhibition at 1 µM [15]: -6.1% | inhibition at 1 µM (serotonin receptor 2A): -8.6% | inhibition at 1 µM (serotonin receptor 1A): 5.4% | inhibition at 1 µM [16]: 6.9% | inhibition at 1 µM (dopamine receptor type 2): -14.4% | inhibition at 1 µM [17]: 0.7%
